The text below walks through data of the METLIN SMRT retention time set (Domingo-Almenara et al. 2019).

The nature of the series: gradient 5% acetonitrile 3 min, to 50% in 2 min, to 85% in 15 min, held 3 min, 100 µL/min. The settings on record: column: Zorbax Extend-C18 2.1 x 50 mm; eluents: water / acetonitrile, 0.1% formic acid. The procedure, abridged: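 Over 3 months, pure standards in mixtures of ~100 molecules were run by HPLC coupled to a quadrupole time-of-flight mass spectrometer in positive and negative ionization mode. The column was a Zorbax Extend-C18 (2.1 × 50 mm, 1.8 μm) at 100 μL/min, eluted with water and acetonitrile each holding 0.1% formic acid, with 40 μL dead and 900 μL dwell volumes. Retention time was determined from adduct peaks chosen by software and checked manually.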
Compound `Cc1ccc(S(=O)(=O)N2CCC(c3nc(C(=O)N(C)C)c(C)o3)CC2)cc1C` came in with an RP-LC retention time of 878 s.

With `Cc1ccc(-c2cn3c4c(=O)n(C)c(=O)n(C)c4nc3n2Cc2ccc(F)cc2)cc1`, the RP-LC retention time is 983 s.

`COC(=O)COC(=O)c1cn(-c2cccc(OC)c2)c(=O)c2ccccc12` came in with an RP-LC retention time of 924 s.

In the case of `CCOCC(=O)N1CCC2(CC1)C(=O)N(C)c1ccccc12`, the RP-LC retention time came to 694 s.

Take `COc1ccc(-c2nc3cc(C)ccn3c2NC(=O)c2ccc(Br)cc2)cc1`: the RP-LC retention time was 727 s. The value for `CCCN1C(=O)c2cc(S(=O)(=O)NCCc3cccs3)ccc2Oc2cccnc21` was 1050 s. The value for `CCn1nc(C(=O)NCCn2nc(C)cc2C)ccc1=O` was 578 s; that for `COCCCNC(=O)C1c2ccccc2C(=O)N1CCCc1ccccc1` (stereo not given) was 761 s. The value for `O=C(O)c1cnc(N2CCSCC2)nc1-c1ccccc1` was 866 s; that for `CN(C)c1cc(N2CCCC(NC(=O)Cc3cccs3)C2)ncn1` (stereo not given) was 596 s; that for `Cc1nn(-c2cc(N3CCOCC3)ncn2)c(C)c1CCC(=O)NCCc1ccco1` was 734 s. The compound `O=C(c1csc(N2CCCC2)n1)N1CCCC1` gave an RP-LC retention time of 657 s.

`O=C(c1ccc(-c2cccs2)nc1)N1CCN(c2ccccn2)CC1`: the RP-LC retention time came out at 604 s. Under `Cc1cc(C)cc(NC(=O)Nc2ccc3nc(N4CCN(C)CC4)cc(C)c3c2)c1` stands 620 s; under `CCOc1ccc(-c2nc(-c3cccc(-c4ccn[nH]4)c3)no2)cc1`, 999 s; under `Cn1c(C(=O)N2CCN(c3ccccn3)CC2)cc2sccc21`, 598 s. `CCn1cc(C(=O)NCc2ccccc2)c(S(=O)(=O)N2CCSCC2)n1` showed an RP-LC retention time of 880 s. The value for `COc1cccc(NC(=O)C2CCN(c3c(C)n(C)c(=O)n(C)c3=O)CC2)c1` was 769 s; that for `O=C(c1cccc(N2CCNC(c3ccccc3)C2)n1)N1CCSCC1` (stereo not given) was 614 s; that for `Clc1ccc(Cl)c(-c2ccc(CNCC3CCNCC3)o2)c1` was 574 s. The value for `O=C(c1cc(-c2cccnc2)n[nH]1)N1CCCC(C(=O)N2CCN(c3ccc(Cl)cc3)CC2)C1` (stereo not given) was 685 s; that for `Cc1ccccc1CNC(=O)c1cn2ccncc2n1` was 692 s. The value for `COc1ccc(CC(=O)N2CCN(c3ccc(-c4nc(C)cs4)cn3)CC2)cc1OC` was 788 s; that for `COc1cccc(CNC(=O)NCCC2CCN(S(=O)(=O)c3ccc(C)cc3)CC2)c1` was 873 s. In turn, `CCCN1CCN(C(=O)CC2CCN(C(=O)c3[nH]c(C)c(C(=O)OC(C)C)c3C)CC2)CC1` showed an RP-LC retention time of 624 s.

The compound `O=C(NCCn1c(=O)n(Cc2ccccc2)c2cccnc21)c1cccs1` gave an RP-LC retention time of 744 s. The value for `CCCCOc1ccc(CNC(=O)c2ccc3c(c2)N(C)C(=O)C2CCCCN32)cc1` (stereo not given) was 843 s; that for `O=C(c1cnc2ccccc2n1)N1CCN(Cc2nc(-c3ccc(F)cc3)cs2)CC1` was 719 s; that for `CCOCC(=O)N1CCC(c2nc(CNC(=O)C3CCC3)cs2)CC1` was 623 s. Under `O=C1Nc2cc(C(=O)N3CCN(Cc4ccc5c(c4)OCO5)CC3)ccc2N2CCCCC12` (stereo not given) stands 624 s; under `COc1ccc(-c2nc3cnccn3c2Nc2ccc(Cl)cc2)cc1OC`, 830 s. Compound `CN1C(=O)Cc2ccccc2C1C(=O)NCc1ccco1` (stereo not given) showed an RP-LC retention time of 668 s. The value for `O=C(Cn1ccn2nc(-c3ccccc3)cc2c1=O)NCc1ccccc1Cl` was 817 s; that for `Cn1nc(-c2nnc(-c3ccccc3)o2)c2c1CCN(S(=O)(=O)c1ccc3c(c1)CCC3)C2` was 688 s; that for `Cc1cc(C(=O)N2CCOCC2)nn1CC(=O)NCCc1c[nH]c2ccccc12` was 637 s. The value for `O=C(COc1ccc(Cl)cc1)NCc1nnc(SCC(=O)Nc2nccs2)o1` was 703 s. The value for `O=C(C1CC(=O)N(C2CCCCC2)C1)N1CCC2(CC1)NCCc1c2[nH]c2ccccc12` (stereo not given) was 654 s; that for `Cc1nc(C2(C)CCN(C(=O)CCc3cc(Cl)no3)CC2)no1` was 750 s. The compound `COc1cccc(-c2noc(CN3C(=O)COc4ccc(Cl)cc43)n2)c1OC` returned an RP-LC retention time of 1020 s. For `COc1ccc(-n2c(=O)c3sccc3n(Cc3nc(-c4ccccc4C)no3)c2=O)cc1`, the RP-LC retention time turned out to be 1000 s. The value for `Clc1ccc(-c2noc(CN3CCOCC3)n2)cc1` was 775 s; that for `Cc1ccc(CN2N=C(C(=O)N3CCC(C)CC3)S(=O)(=O)c3ccccc32)cc1` was 1060 s. The value for `COc1ccc(CNC(=O)N2CCN(Cc3nc4ccc(Cl)cc4o3)CC2)cc1` was 711 s. Compound `Cc1nn2c(CNS(=O)(=O)c3cccc(Cl)c3)c(-c3ccccc3)nc2s1` returned an RP-LC retention time of 916 s. The value for `O=C(NCCc1cccs1)C1CCN(c2cc(N3CCCCC3)ncn2)CC1` was 672 s; that for `Cc1cc(F)ccc1NS(=O)(=O)c1cc(-c2[nH]ncc2C(=O)N(C)C)oc1C` was 697 s. Take `O=C1CCC(C(=O)N2CCCn3ccnc3C2C2CCCC2)=NN1` (stereo not given): the RP-LC retention time is 564 s. The value for `CCOC(=O)c1cnc2nc(C)ccc2c1Nc1cc(OC)c(OC)c(OC)c1` was 671 s; that for `Cc1c(Cl)cccc1NC(=O)C(=O)NCC(O)c1ccc(C(F)(F)F)cc1` (stereo not given) was 936 s; that for `CCOc1cc(C(=O)NC2CCN(c3cc(-c4ccc(OC)cc4)[nH]n3)C2)cc(OCC)c1OCC` (stereo not given) was 806 s. In turn, `COC(=O)C(C)n1cc(-c2nc(-c3ccc(Cl)cc3)no2)ccc1=O` (stereo not given) had an RP-LC retention time of 950 s. Regarding `O=C(O)c1cn(CCOc2ccccc2)c2ccccc12`, the RP-LC retention time was determined as 885 s. Under `Cc1nc2cc(N3CCCC(C(=O)NCc4ccccc4)C3)cnc2nc1C` (stereo not given) stands 705 s; under `CCN1C(=O)c2cccnc2Sc2cc(CNC(=O)c3ccc(C#N)cc3)ccc21`, 756 s. The compound `CCn1cc(C(=O)NCc2ccccc2)c2cccnc21` showed an RP-LC retention time of 782 s. The value for `Cc1nnc(-c2cn(CC(=O)Nc3cccc(F)c3)c3ccccc23)o1` was 755 s; that for `CCCN(CCC)C1CCc2ccc(O)cc2C1` (stereo not given) was 640 s; that for `COc1ccc(C2(C(=O)N3C[C@H]4C[C@H](C3)[C@H]3CCCC(=O)N3C4)CCCCC2)cc1` was 826 s. Under `O=C(NCCC1=CCCCC1)C1CCCN(c2nccn3nc(-c4ccccc4Cl)cc23)C1` (stereo not given) stands 1090 s; under `COc1ccc(CC(=O)N2CCc3cc(-c4csc(C)n4)ccc32)cc1`, 1060 s. The value for `COc1ccccc1-n1c(SCC(=O)Nc2nnc(C)s2)nc2c(c1=O)SCC2` was 645 s. In the case of `CCC1CN2C=NC(N3CCN(C(=O)Nc4cc(C)ccc4OC)CC3)=CC2=N1` (stereo not given), the RP-LC retention time turned out to be 658 s.

Turning to `COc1ccc(NC(=O)Cn2c(N3CCOCC3)nc(C)cc2=O)c(OC)c1`, the RP-LC retention time was 669 s. The value for `CCOC(=O)C1CCCN(Cc2nc(-c3cc(OC)c(OC)c(OC)c3)no2)C1` (stereo not given) was 774 s; that for `COCCCNC(=O)CN1c2ccccc2NC2=C(C(=O)CC(C)(C)C2)C1c1ccc(C)cc1` (stereo not given) was 822 s; that for `COc1ccc(-c2cc(N3CCC(NC(=O)c4ccccc4OC)C3)n[nH]2)cc1` (stereo not given) was 712 s. The value for `CCCNC(=O)C1CCCN(c2nc3ncn(CC(=O)Nc4ccccc4)c(=O)c3s2)C1` (stereo not given) was 683 s; that for `Cc1ccc(Sc2nccnc2N2CCCC(C(=O)NC(C)c3ccccc3)C2)cc1` (stereo not given) was 1140 s; that for `Cc1ccc(N2CCC(NC(=O)Nc3cccc(C)c3)C2=O)cc1` (stereo not given) was 862 s. Under `O=C(Nc1ccc2c(c1)OCO2)N(Cc1ccccn1)Cc1ccco1` stands 628 s; under `Cc1sc(-c2nc(C(C)C)cs2)cc1S(=O)(=O)Nc1cc(F)ccc1F`, 1220 s; under `O=C(NCc1cccs1)c1nnc(-c2ccc(S(=O)(=O)N3CCCC3)cc2)o1`, 849 s.

In the case of `CC(C)c1c(C(=O)O)nnn1Cc1ccc(Cl)cc1`, the RP-LC retention time came to 788 s. Under `COc1ccccc1C(=O)N1CCC2(CC1)N=C(c1ccc(Br)cc1)C(=O)N2` stands 863 s; under `CCCCC(=O)N1CCC2(C1)C(=O)N(C)c1ccc(OC)cc12` (stereo not given), 744 s; under `COc1ccc2c(CCNC(=O)c3cc(OC)c(OC)c(OC)c3)c[nH]c2c1`, 758 s. The value for `O=C(Cn1nc2c3ccc(Cl)cc3ncn2c1=O)NCc1ccccc1` was 716 s; that for `COc1ccccc1-c1noc(Cn2c(=O)n(Cc3ccccc3Cl)c(=O)c3sccc32)n1` was 1130 s; that for `CCCC1=Nc2cc(C(=O)N3CCN(c4ccccn4)CC3)ccc2Sc2ccc(C)cc21` was 802 s.

`CCOC(=O)c1[nH]c(C)c(C(=O)C(C)N(CCOC)C(=O)c2ccccc2Cl)c1C` (stereo not given) had an RP-LC retention time of 820 s.
